Measurements as given in US20260248963A1, “COMPOSITIONS FOR TREATING CANCER WITH KRAS MUTATIONS AND USES THEREOF” (AADIGEN, LLC, priority 2023, published 2026).

How the values were obtained:
Type in all cases: cell-based
[1] = tested on: MTRX-1133 resistant PANC-1 cells; experiment: Cell growth inhibition assay, MTRX-1133 resistant PANC-1
Method: (§1) To identify mutations or regulatory mechanisms that would confer acquired resistance to KRAS^G12D inhibitor MTRX1133, ASPC-1 and PANC-1 cells harboring KRAS G12D were exposed to increasing concentrations of MTRX-1133 (up to 20 μM). […] Clones resistant to KRAS^G12D inhibitor were generated during the course of the treatment.
(§2) ADGN-123 nanoparticle corresponds to gRNA35A5 sgRNA/Cas9 mRNA (1/1 molar ratio) associated with ADGN peptide (ADGN-106-Hydro3 peptide or ADGN-108-R9) at molar ratio 20/1 (peptide/nucleic acid). ADGN-123 nanoparticles were evaluated on the three stable MTRX-1133 resistant PANC-1 clones and two ASPC-1 clones. PANC-1-C1, PANC-1-C2, PANC-1-C3, ASPC-1-C1 and ASPC-1-C2. Cells were cultured in 96-well plate format and treated with free mRNACas9-gRNA, or ADGN-123 (ADGN/mRNACas9-gRNA) complex (from 0.1-10 μM) on day 1. Cell proliferation was analyzed over a period of 5 days using CellTiter Glow kits on GlowMax (Promega) and cytotoxicity was analyzed at 72 hr after treatment using CellTiter Glow or MTT assays kits.

[2] = tested on: MTRX-1133 resistant ASPC-1 cells; experiment: Cell growth inhibition assay, MTRX-1133 resistant ASPC-1
Method: as §1, §2

[3] = tested on: parental ASPC-1 cells harboring KRAS G12D; experiment: Growth suppression of parental ASPC-1 cells
Method: as §1

[4] = tested on: parental PANC-1 cells harboring KRAS G12D; experiment: Growth suppression of parental PANC-1 cells
Method: as §1

`C#Cc1c(F)ccc2cc(O)cc(-c3ncc4c(N5CC6CCC(C5)N6)nc(OC[C@@]56CCCN5C[C@H](F)C6)nc4c3F)c12` [MTRX-1133] was tested, and the IC50 [1] was 4.75 ± 0.212 µM, the IC50 [2] was 2.08 ± 0.203 µM and the “Lowest concentration that suppressed the growth of parental cells” value [3] was 100 nM. The “Lowest concentration that suppressed the growth of parental cells” value [4] was 100 nM.
